Measured values published in PMC12521730, “Quantitative dual-isotope preclinical SPECT/CT imaging and biodistribution of the mercury-197m/g theranostic pair with [^197m/gHg]HgCl2 and a [^197m/gHg]Hg-tetrathiol complex as a platform for radiopharmaceutical development” (EJNMMI Radiopharmacy and Chemistry, 2025).
Entries after “also recorded” stand apart in the source; their conditions may differ.

Experiment: In vivo SPECT/CT imaging
Parameters: species or system healthy male C57BL/6 mice
Conditions: for organs of tracer accumulation (qualitative): 0-2 h post injection
Protocol: For animal injection, the tracer was prepared at high molar activity. Radiolabeling of H4Tetrathiol (10^–2 M in DMSO; 40 μL for imaging, 20 μL for bioD) (or DMSO, for [^197m/gHg]HgCl2 mice) with [^197m/gHg]HgCl2 (imaging: 26.7 MBq total m + g, 62 μL; bioD: 13.04 MBq total m + g, 31 μL) was performed in a mixture of ammonium acetate buffer (1 M; pH 7; 198 μL for imaging or 149 μL for bioD) and 6 M NaOH (72 μL or 38 μL required to achieve a pH of 7.5 after addition of activity, for imaging or BioD labeling, respectively). The reaction was allowed to stand for 1 h at 37 °C and quantitative (> 99%) non-isolated percentage radiochemical yield (%RCY) was confirmed via the iTLC methods mentioned above. Further, 100 µL of the reaction was diluted with 50 µL of PBS Tween-20 (0.01 M sodium phosphate, 0.15 M NaCl, 0.05% Tween-20) for imaging mice, or 50 µL of the reaction was diluted with 100 µL of PBS Tween-20 for BioD mice. The tracers were prepared immediately before injection to avoid radiolysis and minimize the tracer loss to any surfaces due to its lipophilicity. The injected doses of each isomer, ^197mHg and ^197gHg, were quantified by measuring an aliquot of known volume of each tracer preparation via HPGe gamma spectroscopy and decay corrected for time of injection using the Eqs. (1) and (2).
The study was conducted in compliance with the guidelines set by the Canadian Council on Animal Care (CCAC) and approved by the Animal Care Committee (ACC) at the University of British Columbia (A20-0132). A total of eight healthy male C57BL/6 mice weighing approximately 30 g for group 1 and 25 g for group 2 were used in the study. The mice were divided into two experimental groups: group 1 (n = 4) received free [^197m/gHg]HgCl2, while group 2 (n = 4) received [^197m/gHg]Hg-Tetrathiol. Within each group, one mouse was allocated for imaging, while the rest were designated for ex vivo biodistribution analysis. For SPECT imaging, the designated mice were anesthetized using isoflurane via a precision vaporizer. […] Once anesthetized, each imaging mouse received an intravenous (IV) injection via the lateral tail vein of 150 μL of [^197m/gHg]HgCl2 (0.492 MBq ^197mHg + 3.171 MBq ^197gHg) or [^197m/gHg]Hg-Tetrathiol (0.899 MBq ^197mHg + 4.230 MBq ^197gHg) in PBS Tween-20 (0.01 M Na Phosphate, 0.15 M NaCl, 0.05% Tween-20).
The animals were immediately placed in the scanner and whole-body scans were acquired dynamically during 120 min post-injection (6 frames × 20 min/frame). Throughout the entire scanning procedure, mice were kept under isoflurane anesthesia and body temperature was maintained constant using a heated imaging bed. […] These energy window settings yielded the optimum, and most robust quantification results based on the phantom experiments (vide supra). […]

| Structure (SMILES) | organs of tracer accumulation (qualitative) | organs of tracer accumulation (qualitative) (listed as [^197m/gHg]Hg-tetrathiol) | blood clearance and excretion (qualitative) (compared with [197m/gHg]HgCl2) |
| --- | --- | --- | --- |
| O=C(CC[S-])OCC(COC(=O)CC[S-])(COC(=O)CC[S-])COC(=O)CC[S-].[Hg+2] [[^197m/gHg]Hg-Tetrathiol] | predominantly accumulates in the spleen and liver | tracer accumulation primarily in the liver and spleen | faster blood clearance and excretion through the reticuloendothelial system (RES) |
| [Cl][Hg][Cl] [[^197m/gHg]HgCl2] | primarily accumulating in the kidneys; also recorded: strong affinity for the kidneys | – | – |
